Patent US20230146455A1, “TREATMENT OF INFLAMMATORY DISEASES WITH PEPTIDES AND PHARMACEUTICAL COMPOSITIONS” (Yuyu Pharma, Inc., priority 2020, published 2023)
Values joined by “and” are separate entries in the source; they are usually repeats but may differ in a detail not shown here. Identical values can stand only once. Where a SMILES comes first, the peptide text is derived from it. [ ]: non-standard residue; d: D form. Hyp = O=C(O)[C@@H]1C[C@@H](O)CN1

Test system: IL-1 alpha
Experiment: Example 9 Luminex, LPS hPBMCs: IL-1 alpha
Format: cell-based, human
Details: IL-1 alpha, replicates and Mean
Experimental: Treatment Human PBMCs were pretreated with YY-101, YDE-011 and YDE-043 or reference compound; Xiidra® at various concentration (ranging from 1 nM to 100 uM) for 2 h before stimulation. An equal volume of 0.5% DMSO was used as a vehicle control. Then, the cells were treated with LPS at 5 ug/ml. The supernatants from treated cells were harvested at 24 h and placed in a 96 well for Luminex cytokine & chemokine profiling using a Luminex 200 multiplex assay (Luminex; R&D system, USA).
The main study arm with triplicate wells per group in a 24-well plate: • 1. Blank • 2. PBMC: 0.5% DMSO • 3. PBMC+LPS (5 ug/ml) • 4. PBMC+YY-101 100 uM • 5. PBMC+YY-101 10 uM • 6. PBMC+YY-101 1 uM • 7. PBMC+YY-101 0.1 uM • 8. PBMC+YY-101 0.01 uM • 9. PBMC+LPS (5 ug/ml)+Xiidra®100 uM • 10. PBMC+LPS (5 ug/ml)+Xiidra® 10 uM • 11. PBMC+LPS (5 ug/ml)+Xiidra® 1 uM • 12. PBMC+LPS (5 ug/ml)+Xiidra®0.1 uM • 13. PBMC+LPS (5 ug/ml)+Xiidra®0.01 uM • 14. PBMC+LPS (5 ug/ml)+Xiidra®0.001 uM • 15. PBMC+LPS (5 ug/ml)+YY-101 100 uM • 16. PBMC+LPS (5 ug/ml)+YY-101 10 uM • 17. PBMC+LPS (5 ug/ml)+YY-101 1 uM • 18. PBMC+LPS (5 ug/ml)+YY-101 0.1 uM • 19. PBMC+LPS (5 ug/ml)+YY-101 0.01 uM • 20. PBMC+LPS (5 ug/ml)+YY-101 0.001 uM • 21. PBMC+LPS (5 ug/ml)+YDE-011 100 uM • 22. PBMC+LPS (5 ug/ml)+YDE-011 10 uM • 23. PBMC+LPS (5 ug/ml)+YDE-011 1 uM • 24. PBMC+LPS (5 ug/ml)+YDE-011 0.1 uM • 25. PBMC+LPS (5 ug/ml)+YDE-011 0.01 uM • 26. PBMC+LPS (5 ug/ml)+YDE-011 0.001 uM • 27. PBMC+LPS (5 ug/ml)+YDE-043 100 uM • 28. PBMC+LPS (5 ug/ml)+YDE-043 10 uM • 29. PBMC+LPS (5 ug/ml)+YDE-043 1 uM • 30. PBMC+LPS (5 ug/ml)+YDE-043 0.1 uM • 31. PBMC+LPS (5 ug/ml)+YDE-043 0.01 uM • 32. PBMC+LPS (5 ug/ml)+YDE-043 0.001 uM
Multiplex assay was used to measure 30 cytokines and chemokines. The 1:2, 1:10 and 1:200 diluted cell supernatant and serial dilution of the standard were dispensed into a 96 well plate at 50 ul/well. Then, the pre-mixed cocktail of antibody-coated magnetic beads was dispensed at 50 ul/well and incubated at room temperature for 2 h in a horizontal orbital microplate shaker at 800±500 rpm. The beads were washed using a magnetic device to prevent loss. The biotin-antibody was dispensed in 50 ul of each well and incubated at room temperature for 1 h in a shaker at 800±500 rpm. After washing, streptavidin-PE was added at 50 ul/well and incubated at room temperature for 30 min in a shaker under the same conditions. Finally, after washing, wash buffer (100 ul/well) was added to the plate and incubated in a shaker for 2 min. The Luminex™ 200 setting were set according to the manufacturer's protocol. The data was calculated with a standard five-parameter logistic nonlinear regression analysis of the data (xPonent software 4.2, USA). The levels of cytokine/chemokine are normalized to the live cell counts (1×10^5 cells/mL) and presented as concentrations per mL (pg/mL or ng/mL).

[1] = PBMC + LPS(5 ug/ml) + YDE011 0.001 uM
[2] = PBMC + LPS(5 ug/ml) + YDE011 0.001 uM, mean
[3] = PBMC + LPS(5 ug/ml) + YDE011 0.01 uM
[4] = PBMC + LPS(5 ug/ml) + YDE011 0.01 uM, mean
[5] = PBMC + LPS(5 ug/ml) + YDE011 0.1 uM
[6] = PBMC + LPS(5 ug/ml) + YDE011 0.1 uM, mean
[7] = PBMC + LPS(5 ug/ml) + YDE011 1 uM
[8] = PBMC + LPS(5 ug/ml) + YDE011 1 uM, mean
[9] = PBMC + LPS(5 ug/ml) + YDE011 10 uM
[10] = PBMC + LPS(5 ug/ml) + YDE011 10 uM, mean
[11] = PBMC + LPS(5 ug/ml) + YDE011 100 uM
[12] = PBMC + LPS(5 ug/ml) + YDE011 100 uM, mean
[13] = PBMC + LPS(5 ug/ml) + YDE043 0.001 uM
[14] = PBMC + LPS(5 ug/ml) + YDE043 0.001 uM, mean
[15] = PBMC + LPS(5 ug/ml) + YDE043 0.01 uM
[16] = PBMC + LPS(5 ug/ml) + YDE043 0.01 uM, mean
[17] = PBMC + LPS(5 ug/ml) + YDE043 0.1 uM
[18] = PBMC + LPS(5 ug/ml) + YDE043 0.1 uM, mean
[19] = PBMC + LPS(5 ug/ml) + YDE043 1 uM
[20] = PBMC + LPS(5 ug/ml) + YDE043 1 uM, mean
[21] = PBMC + LPS(5 ug/ml) + YDE043 10 uM
[22] = PBMC + LPS(5 ug/ml) + YDE043 10 uM, mean
[23] = PBMC + LPS(5 ug/ml) + YDE043 100 uM
[24] = PBMC + LPS(5 ug/ml) + YDE043 100 uM, mean

**Q.** What does the source list for `CC(C)C[C@H](NC(=O)CNC(=O)[C@H](CC(C)C)NC(=O)[C@H](CCC(N)=O)NC(=O)CNC(=O)[C@@H]1C[C@@H](O)CN1)C(=O)N[C@@H](C)C(=O)NCC(=O)N1CCC[C@H]1C(=O)N[C@@H](CCCCN)C(=O)O` [YDE-011] (H-[Hyp]GQLGLAGPK-OH)?
**A.** Concentration [1]: 336.1 pg/mL and 335.4 pg/mL and 361.1 pg/mL; conc/live cell [1]: 74.7 pg/10^5 and 57.8 pg/10^5 and 62.3 pg/10^5; Concentration [2]: 344.2 pg/mL; conc/live cell [2]: 64.9 pg/10^5; Concentration [3]: 359.2 pg/mL and 381.8 pg/mL and 342.8 pg/mL; conc/live cell [3]: 57.9 pg/10^5 and 74.9 pg/10^5 and 54.4 pg/10^5; Concentration [4]: 361.3 pg/mL; conc/live cell [4]: 62.4 pg/10^5; Concentration [5]: 332.4 pg/mL and 312.9 pg/mL and 347.3 pg/mL; conc/live cell [5]: 50.4 pg/10^5 and 62.6 pg/10^5 and 60.9 pg/10^5; Concentration [6]: 330.9 pg/mL; conc/live cell [6]: 58.0 pg/10^5; Concentration [7]: 349.2 pg/mL and 321.1 pg/mL and 345.8 pg/mL; conc/live cell [7]: 63.5 pg/10^5 and 66.9 pg/10^5 and 72.0 pg/10^5; Concentration [8]: 338.7 pg/mL; conc/live cell [8]: 67.5 pg/10^5; Concentration [9]: 356.2 pg/mL and 327.9 pg/mL and 345.8 pg/mL; conc/live cell [9]: 66.0 pg/10^5 and 56.5 pg/10^5 and 73.6 pg/10^5; Concentration [10]: 343.3 pg/mL; conc/live cell [10]: 65.4 pg/10^5; Concentration [11]: 446.4 pg/mL and 402.2 pg/mL and 436.1 pg/mL; conc/live cell [11]: 73.2 pg/10^5 and 65.9 pg/10^5 and 72.7 pg/10^5; Concentration [12]: 428.2 pg/mL; conc/live cell [12]: 70.6 pg/10^5

**Q.** For `CC(C)C[C@H](NC(=O)[C@H](CCC(N)=O)NC(=O)CNC(=O)[C@@H]1C[C@@H](O)CN1)C(=O)NCC(=O)O` [YDE-043] (H-[Hyp]GQLG-OH; N-terminus and C-terminus assumed), which Concentration [13] is on record?
**A.** 339.1 pg/mL and 369.6 pg/mL and 357.7 pg/mL

**Q.** And the conc/live cell [13]?
**A.** 77.1 pg/10^5 and 61.6 pg/10^5 and 77.8 pg/10^5

**Q.** What about the Concentration [14] of the same compound?
**A.** 355.5 pg/mL

**Q.** What about the conc/live cell [14] of the same compound?
**A.** 72.1 pg/10^5

**Q.** And the Concentration [15]?
**A.** 352.5 pg/mL and 342.5 pg/mL and 370.4 pg/mL

**Q.** What about the conc/live cell [15] of the same compound?
**A.** 78.3 pg/10^5 and 51.9 pg/10^5 and 74.1 pg/10^5

**Q.** And the Concentration [16]?
**A.** 355.1 pg/mL

**Q.** What about the conc/live cell [16] of the same compound?
**A.** 68.1 pg/10^5

**Q.** And the Concentration [17]?
**A.** 361.4 pg/mL and 329.0 pg/mL and 382.6 pg/mL

**Q.** What about the conc/live cell [17] of the same compound?
**A.** 72.3 pg/10^5 and 58.8 pg/10^5 and 68.3 pg/10^5

**Q.** And the Concentration [18]?
**A.** 357.7 pg/mL

**Q.** What about the conc/live cell [18] of the same compound?
**A.** 66.5 pg/10^5

**Q.** And the Concentration [19]?
**A.** 344.7 pg/mL and 332.4 pg/mL and 338.7 pg/mL

**Q.** What about the conc/live cell [19] of the same compound?
**A.** 59.4 pg/10^5 and 69.2 pg/10^5 and 63.9 pg/10^5

**Q.** What about the Concentration [20] of the same compound?
**A.** 338.6 pg/mL

**Q.** What about the conc/live cell [20] of the same compound?
**A.** 64.2 pg/10^5

**Q.** And the Concentration [21]?
**A.** 357.4 pg/mL and 342.1 pg/mL and 351.0 pg/mL

**Q.** What about the conc/live cell [21] of the same compound?
**A.** 68.7 pg/10^5 and 63.3 pg/10^5 and 62.7 pg/10^5

**Q.** And the Concentration [22]?
**A.** 350.2 pg/mL

**Q.** And the conc/live cell [22]?
**A.** 64.9 pg/10^5

**Q.** And the Concentration [23]?
**A.** 454.5 pg/mL and 414.4 pg/mL

**Q.** What about the conc/live cell [23] of the same compound?
**A.** 73.3 pg/10^5 and 64.7 pg/10^5

**Q.** And the Concentration [24]?
**A.** 434.4 pg/mL

**Q.** What about the conc/live cell [24] of the same compound?
**A.** 69.0 pg/10^5
